Here are results for 16 compounds from patent US8129399B2, “Aminopyrimidines useful as kinase inhibitors” (Vertex Pharmaceuticals Incorporated, priority 2005, dated 2012).

Common to all, as to format: biochemical
The target in one test is T1, JAK3 (Homo sapiens, UniProt P52333).
T1 sequence (P52333 1-1124): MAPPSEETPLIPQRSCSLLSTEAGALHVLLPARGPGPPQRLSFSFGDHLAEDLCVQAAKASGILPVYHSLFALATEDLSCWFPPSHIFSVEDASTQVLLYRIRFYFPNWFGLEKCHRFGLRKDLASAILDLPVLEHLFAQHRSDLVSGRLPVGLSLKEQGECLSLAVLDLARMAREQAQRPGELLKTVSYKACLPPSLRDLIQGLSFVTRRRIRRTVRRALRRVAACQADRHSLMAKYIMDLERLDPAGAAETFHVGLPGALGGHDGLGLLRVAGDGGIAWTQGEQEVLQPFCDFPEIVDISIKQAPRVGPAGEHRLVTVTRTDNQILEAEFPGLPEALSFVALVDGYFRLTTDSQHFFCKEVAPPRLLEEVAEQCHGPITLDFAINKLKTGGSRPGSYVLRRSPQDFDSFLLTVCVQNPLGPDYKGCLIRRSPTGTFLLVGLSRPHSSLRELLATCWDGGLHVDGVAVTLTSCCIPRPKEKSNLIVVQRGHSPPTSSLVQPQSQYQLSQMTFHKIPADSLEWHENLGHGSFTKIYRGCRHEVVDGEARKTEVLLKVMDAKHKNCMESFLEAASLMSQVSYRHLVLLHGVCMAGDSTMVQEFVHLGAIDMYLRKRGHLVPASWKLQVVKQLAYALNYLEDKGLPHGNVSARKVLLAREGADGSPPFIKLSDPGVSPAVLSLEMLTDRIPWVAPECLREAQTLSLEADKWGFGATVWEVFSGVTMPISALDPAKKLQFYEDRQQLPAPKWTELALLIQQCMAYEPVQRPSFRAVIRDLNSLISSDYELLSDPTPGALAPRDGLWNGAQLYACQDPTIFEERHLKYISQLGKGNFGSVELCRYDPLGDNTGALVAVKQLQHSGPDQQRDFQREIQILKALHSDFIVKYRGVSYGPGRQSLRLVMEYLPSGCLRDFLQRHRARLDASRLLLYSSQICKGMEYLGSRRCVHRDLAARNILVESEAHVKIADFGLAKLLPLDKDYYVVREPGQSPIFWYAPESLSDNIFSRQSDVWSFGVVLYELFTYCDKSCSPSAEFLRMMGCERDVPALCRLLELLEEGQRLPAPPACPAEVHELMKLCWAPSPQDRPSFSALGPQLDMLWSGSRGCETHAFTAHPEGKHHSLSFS
Kind of test: JAK3 inhibition assay. The protocol:
Reactions were carried out in a kinase buffer containing 100 mM HEPES (pH 7.4), 1 mM DTT, 10 mM MgCl2, 25 mM NaCl, and 0.01% BSA. Substrate concentrations in the assay were 5 μM ATP (200 uCi/μmole ATP) and 1 μM poly(Glu)4Tyr. Reactions were carried out at 25° C. and 1 nM JAK3.
To each well of a 96 well polycarbonate plate was added 1.5 μl of a candidate JAK3 inhibitor along with 50 μl of kinase buffer containing 2 μM poly(Glu)4Tyr and 10 μM ATP. This was then mixed and 50 μl of kinase buffer containing 2 nM JAK3 enzyme was added to start the reaction. After 20 minutes at room temperature (25 C), the reaction was stopped with 50 μl of 20% trichloroacetic acid (TCA) that also contains 0.4 mM ATP. The entire contents of each well were then transferred to a 96 well glass fiber filter plate using a TomTek Cell Harvester. After washing, 60 μl of scintillation fluid was added and ^33P incorporation detected on a Perkin Elmer TopCount.

In another test the target is Aurora-1 (Aurora B) (Homo sapiens, UniProt Q96GD4). As to the kind of experiment: Aurora-1 (Aurora B) inhibition assay (radiometric). The protocol: An assay buffer solution was prepared which consisted of 25 mM HEPES (pH 7.5), 10 mM MgCl2, 0.1% BSA and 10% glycerol. […] To 22 μL of the Aurora-B solution, in a 96-well plate, was added 2 μl of a compound stock solution in DMSO and the mixture allowed to equilibrate for 10 minutes at 25° C. The enzyme reaction was initiated by the addition of 16 μl stock [γ-^33P]-ATP solution (˜20 nCi/μL) prepared in assay buffer, to a final assay concentration of 800 μM. The reaction was stopped after 3 hours by the addition of 16 μL 500 mM phosphoric acid and the levels of ^33P incorporation into the peptide substrate were determined by the following method.
Chain of Aurora-1 (Aurora B) (Q96GD4 whole entry): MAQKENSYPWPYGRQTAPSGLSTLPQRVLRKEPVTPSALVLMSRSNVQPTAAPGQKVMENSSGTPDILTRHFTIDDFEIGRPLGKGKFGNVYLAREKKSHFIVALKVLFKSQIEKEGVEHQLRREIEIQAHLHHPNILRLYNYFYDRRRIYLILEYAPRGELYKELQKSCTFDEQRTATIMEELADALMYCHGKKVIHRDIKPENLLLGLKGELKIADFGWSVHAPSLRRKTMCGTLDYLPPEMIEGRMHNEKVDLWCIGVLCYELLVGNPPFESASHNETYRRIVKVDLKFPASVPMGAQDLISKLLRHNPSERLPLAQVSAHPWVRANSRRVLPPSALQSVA
A phosphocellulose 96-well plate (Millipore, Cat no. MAPHNOB50) was pre-treated with 100 μL of a 100 mM phosphoric acid prior to the addition of the enzyme reaction mixture (40 μL). The solution was left to soak on to the phosphocellulose membrane for 30 minutes and the plate subsequently washed four times with 200 μL of a 100 mM phosphoric acid. […] Levels of non-enzyme catalyzed background radioactivity were determined by adding 16 μL of the 500 mM phosphoric acid to control wells, containing all assay components (which acts to denature the enzyme), prior to the addition of the [γ-^33P]-ATP solution. Levels of enzyme catalyzed ^33P incorporation were calculated by subtracting mean background counts from those measured at each inhibitor concentration. […] Ki values were calculated from initial rate data by non-linear regression using the Prism software package (Prism 3.0, Graphpad Software, San Diego, Calif.).

In a further test the target is T2, Aurora-2 (Aurora A) (Homo sapiens, UniProt O14965).
T2 sequence (O14965 1-403): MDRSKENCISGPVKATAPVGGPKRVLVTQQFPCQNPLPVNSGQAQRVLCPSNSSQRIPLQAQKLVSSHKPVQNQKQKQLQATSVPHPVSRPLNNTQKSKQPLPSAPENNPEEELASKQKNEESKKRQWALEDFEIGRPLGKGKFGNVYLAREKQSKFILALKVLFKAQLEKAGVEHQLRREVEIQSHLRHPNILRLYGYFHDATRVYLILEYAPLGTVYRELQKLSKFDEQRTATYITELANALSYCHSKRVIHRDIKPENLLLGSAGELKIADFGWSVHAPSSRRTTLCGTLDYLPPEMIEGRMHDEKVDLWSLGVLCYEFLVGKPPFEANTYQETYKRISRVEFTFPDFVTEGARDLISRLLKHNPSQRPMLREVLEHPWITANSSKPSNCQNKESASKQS
As to the kind of experiment: Aurora-2 (Aurora A) inhibition assay, coupled enzyme. The protocol: Assays were carried out in a mixture of 100 mM Hepes (pH7.5), 10 mM MgCl2, 1 mM DTT, 25 mM NaCl, 2.5 mM phosphoenolpyruvate, 300 μM NADH, 30 μg/ml pyruvate kinase and 10 μg/ml lactate dehydrogenase. […] Assays were carried out at 30° C. and in the presence of 40 nM Aurora-2.
An assay stock buffer solution was prepared containing all of the reagents listed above, with the exception of Aurora-2 and the test compound of interest. […] The plate was preincubated for 10 minutes at 30° C. and the reaction initiated by addition of 10 μl of Aurora-2. Initial reaction rates were determined with a Molecular Devices SpectraMax Plus plate reader over a 10 minute time course. IC50 and Ki data were calculated from non-linear regression analysis using the Prism software package (GraphPad Prism version 3.0cx for Macintosh, GraphPad Software, San Diego Calif., USA).

Setting [1] is: 800 μM ATP, read-out: Aurora B Ki.
The mark [2] stands for this setting: 400 μM ATP, 40 nM Aurora-2, read-out: Aurora A Ki.

pKi: −log10 of the molar value. Read-outs that look alike come from different tables or passages of the source.

In general, pKi refers to −log10 of the Ki, conventionally taken in molar units. Regarding `CCC(=O)Nc1ccc(Sc2nc(Nc3cc(C)n[nH]3)cc(N3CC(O)(C4CC4)C3)n2)cc1` [Compound I-2], the negative-log Ki (pKi) was 6.80 at JAK3, 8.12 on Aurora-1 (Aurora B) (setting [1]) and 9.41 on Aurora-2 (Aurora A) (setting [2]).

For `CCC(=O)Nc1ccc(Sc2nc(Nc3cc(C)n[nH]3)cc(N3CC(O)(C4CCCC4)C3)n2)cc1` [Compound I-3], the negative-log Ki (pKi) was 6.82 on JAK3, 8.19 on Aurora-1 (Aurora B) (setting [1]) and 9.17 on Aurora-2 (Aurora A) (setting [2]).

For `CCC(=O)Nc1ccc(Sc2nc(Nc3cc(C)n[nH]3)cc(N3CC(O)(C(C)C)C3)n2)cc1` [Compound I-5], the negative logarithm of the Ki (pKi) was 7.00 at JAK3, 7.85 at Aurora-1 (Aurora B) (setting [1]) and 8.92 on Aurora-2 (Aurora A) (setting [2]).

For the compound `CCC(=O)Nc1ccc(Sc2nc(Nc3cc(C)n[nH]3)cc(N3CC(O)(C(C)CC)C3)n2)cc1` (stereo not drawn) [Compound I-6], the pKi on JAK3 was 6.72; on Aurora-1 (Aurora B), 8.21; on Aurora-2 (Aurora A), 9.11.

For `CCC(=O)Nc1ccc(Sc2nc(Nc3cc(C4CC4)[nH]n3)cc(N3CC(O)(C4CC4)C3)n2)cc1` [Compound I-7], the pKi on JAK3 is 7.43; at Aurora-1 (Aurora B) (setting [1]) it was > 8.22; at Aurora-2 (Aurora A), 9.44.

`Cc1cc(Nc2cc(N3CC(O)(C4CC4)C3)nc(Sc3ccc(NC(=O)C4CC4)cc3)n2)n[nH]1` [Compound I-8]: the negative-log Ki (pKi) is 6.85 on JAK3, 8.15 on Aurora-1 (Aurora B) (setting [1]) and 9.06 on Aurora-2 (Aurora A) (setting [2]).

On to `Cc1cc(Nc2cc(N3CC(O)(C4CC4)C3)nc(Sc3ccc(NC(=O)C4CCCC4)cc3)n2)[nH]n1` [Compound I-9, N-(4-((4-(3-methyl-1H-pyrazol-5-ylamino)-6-(3-cyclopropyl-3-hydroxyazetidin-1-yl)pyrimidin-2-yl)sulfanyl)phenyl)cyclopentanecarboxamide], for which the pKi is 6.82 on JAK3, > 8.22 at Aurora-1 (Aurora B) (setting [1]) and 9.37 on Aurora-2 (Aurora A) (setting [2]).

In the case of `O=C(Nc1ccc(Sc2nc(Nc3cc(C4CC4)[nH]n3)cc(N3CC(O)(C4CC4)C3)n2)cc1)C1CC1` [Compound I-10], the pKi was 7.29 on JAK3, 8.15 at Aurora-1 (Aurora B) (setting [1]) and 9.38 at Aurora-2 (Aurora A).

In the case of `Cc1cc(Nc2cc(N3CC(O)(C4CC4)C3)nc(Sc3ccc(NC(=O)C4CC4)cc3F)n2)[nH]n1` [Compound I-11, N-(4-((4-(3-methyl-1H-pyrazol-5-ylamino)-6-(3-cyclopropyl-3-hydroxyazetidin-1-yl)pyrimidin-2-yl)sulfanyl)-3-fluorophenyl)cyclopropanecarboxamide], the pKi on JAK3 is 7.25; on Aurora-1 (Aurora B) (setting [1]), 8.05; at Aurora-2 (Aurora A) (setting [2]) it was 9.39.

Consider `Cc1cc(Nc2cc(N3CC(O)(C4CC4)C3)nc(Sc3ccc(NC(=O)C4CC4(F)F)cc3)n2)[nH]n1` (stereo not drawn) [Compound I-12], for which the pKi on JAK3 was 7.55; on Aurora-1 (Aurora B) (setting [1]) it was 8.52; on Aurora-2 (Aurora A) (setting [2]), 9.46.

As for `Cc1cc(Nc2cc(N3CC(F)(C4CC4)C3)nc(Sc3ccc(NC(=O)C4CC4)cc3)n2)n[nH]1` [Compound I-13], the pKi is 6.54 on JAK3, 7.66 on Aurora-1 (Aurora B) (setting [1]) and 8.96 at Aurora-2 (Aurora A) (setting [2]).

In the case of `Cc1cc(Nc2cc(N3CC(F)(C4CC4)C3)nc(Sc3ccc(NC(=O)CC(F)(F)F)cc3)n2)[nH]n1` [Compound I-14, N-(4-(4-(3-methyl-1H-pyrazol-5-ylamino)-6-(3-cyclopropyl-3-fluoroazetidin-1-yl)pyrimidin-2-ylthio)phenyl)-3,3,3-trifluoropropanamide], the negative logarithm of the Ki (pKi) at JAK3 was 7.11; on Aurora-1 (Aurora B) (setting [1]), 8.17; at Aurora-2 (Aurora A) (setting [2]) it was 9.46.

Consider `Cc1cc(Nc2cc(N3CC(F)(C4CC4)C3)nc(Sc3ccc(NC(=O)C4CC4)cc3F)n2)n[nH]1` [Compound I-18], for which the values for the pKi on JAK3, on Aurora-1 (Aurora B) and at Aurora-2 (Aurora A) were 6.66, 7.74 and 9.46, respectively.

`Cc1cc(Nc2cc(N3CC(F)(C4CC4)C3)nc(Sc3ccc(NC(=O)CC4CC4)cc3)n2)[nH]n1` [Compound I-19]: the pKi on JAK3 is 6.21; at Aurora-1 (Aurora B) (setting [1]), 7.68; on Aurora-2 (Aurora A), 9.36.

`Cc1cc(Nc2cc(N3CC(F)(C4CC4)C3)nc(Sc3ccc(NC(=O)C4CC4(F)F)cc3)n2)[nH]n1` (stereo not drawn) [Compound I-20]: the pKi at JAK3 is 6.96; on Aurora-1 (Aurora B) (setting [1]), 7.74; on Aurora-2 (Aurora A) (setting [2]) it was 9.11.

In the case of `Cc1cc(Nc2cc(N3CC(F)(C4CC4)C3)nc(Sc3ccc(NC(=O)CC(F)(F)F)nc3)n2)[nH]n1` [Compound I-21, N-(5-(4-(3-methyl-1H-pyrazol-5-ylamino)-6-(3-cyclopropyl-3-fluoroazetidin-1-yl)pyrimidin-2-ylthio)pyridin-2-yl)-3,3,3-trifluoropropanamide], the pKi on JAK3 was 7.00; on Aurora-1 (Aurora B) (setting [1]), 8.02; at Aurora-2 (Aurora A), 9.36.
